{
  "source": "patent US5856325A",
  "about": "“Benzotriazines, pharmaceutical compositions, and methods of using same” (Boehringer Mannheim GmbH, priority 1992, dated 1999)",
  "key": {"[1]": {"target": "T1, human recombinant type II PLA2 (synovial PLA2) (Homo sapiens, UniProt P14555)", "T1 sequence (P14555 21-144)": "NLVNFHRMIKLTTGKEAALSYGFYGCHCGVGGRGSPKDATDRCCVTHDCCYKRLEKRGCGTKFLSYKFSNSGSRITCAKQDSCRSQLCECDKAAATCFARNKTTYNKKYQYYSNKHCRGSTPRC", "assay": "Inhibition of the human recombinant type II PLA2 (synovial PLA2), in vitro", "format": "biochemical", "description": "a) Inhibition of the human recombinant type II PLA2) (=synovial PLA2)\nAs typical respresentative of A PLA2, there was selected for the testing the synovial PLA2 (dissertation of Rainer Muller, 1993; University of Regensburg).\nAs representative of the compounds I or Ia, respectively, there was investigated in more detail the compound from Example 1. In the following Table, there is given dosage-dependent the percentage in vitro inhibition of PLA2."}, "[2]": {"system": "collagen-induced arachidonic acid (AA) liberation from human thrombocytes", "assay": "Inhibition of the collagen-induced arachidonic acid (AA) liberation from human thrombocytes (3H-AA)", "format": "cell-based", "experimental": "b) Inhibition of the collagen-induced arachidonic acid\n(AA) liberation from human thrombocytes\nAs further indicator of a PLA2 inhibition, there is valid an inhibition of the AA liberation from thrombocytes. For this purpose, the thrombocytes are equilibrated with ^3 H-AA. This added radioactive arachidonic acid incorporates into membrane phospholipids. Subsequently, the thrombocytary PLA2 is activated via the collagen receptor and ^3 H-AA thus again liberated from the membrane phospholipids into the medium where it can be measured."}},
  "data": [
    {"smiles": "Nc1nc2ccccc2[n+]([O-])n1", "note": "[Example 1, 1,2,4-Benzotriazine-3-amine 1-oxide]", "values": [
      {"measurement": "inhibition at 1 µg/mL", "setting": "[1]; 1 μg/ml", "value": 43, "unit": "%"},
      {"measurement": "inhibition at 10 µg/mL", "setting": "[1]; 10 μg/ml", "value": 60, "unit": "%"},
      {"measurement": "inhibition at 100 µg/mL", "setting": "[1]; 100 μg/ml", "value": 99, "unit": "%"},
      {"measurement": "inhibition at 10 µg/mL", "setting": "[2]; 10 μg/ml, collagen-induced, human thrombocytes", "value": 29, "unit": "%"},
      {"measurement": "inhibition at 100 µg/mL", "setting": "[2]; 100 μg/ml, collagen-induced, human thrombocytes", "value": 91, "unit": "%"},
      {"measurement": "inhibition of the collagen-induced AA liberation, maximum", "setting": "[2]; dosage-dependent", "value": "up to 91%"}
    ]}
  ]
}
